Measured values taken from patent US20250319095A1, “USE OF BENZO[…] INCREASE SENSITIVITY TO […] A CHRONIC SSRI REGIMEN” (Compass Pathfinder Limited, priority 2020, published 2025).
Where “and” joins values, the source holds several entries; their conditions need not be identical. Equal values may be shown once.

Tests used:
[1] = oral dose equivalence; cited from earlier work
male C57BL/6J mice = test: Psilocybin head twitch response with chronic diazepam pre-treatment; assay type: in vivo
Method: Sixty-two (60 plus 2 spares;) male C57BL/6J mice (20-25 g upon arrival) were purchased from Charles River UK. Animals were group housed (in 3 s and a pair) in polypropylene cages. Mice were maintained on a normal phase 12 h light-dark cycle (lights on: 07:00-19:00 h) with free access to standard rodent maintenance diet (standard pelleted diet Envigo 2018) and filtered tap water. The holding room was maintained at a temperature of 21±4° C. and relative humidity was 55±15% with prolonged periods below 40% RH or above 70% RH avoided as detailed in the UK Code of Practice. As a refinement, each cage contained sawdust, sizzle nest, a red house, Perspex tunnel, plastic chew stick and a nestlet so that the mice can make nests and facilitate warmth. Mice were weighed upon arrival and provided with wet mash overnight. The following morning, mice were weighed, and the mash removed.
Mice were weighed and allocated into 6 treatment groups by a statistician (as per Table 20 below). […] For groups A-D animals were placed individually in clean cages with a light dusting of sawdust immediately following psilocybin administration (0.3 mg/kg, s.c) for head twitch response assessment. Head twitches were counted by a trained observer over a 30 minute period.
Statistical significance was tested using two-way analysis of variance with treatment and observer as cofactors (Table 21 below).

5HT2A = target: T1, 5HT2A (Mus musculus, UniProt P35363); test: [3H]MDL100907 binding in frontal cortical membranes (5HT2A Kd and Bmax)
T1 construct: homogenates were prepared from frontal cortices sampled from groups E and F; from tissue; host or cells: mouse frontal cortex membranes (homogenate)
T1 sequence (P35363 whole entry): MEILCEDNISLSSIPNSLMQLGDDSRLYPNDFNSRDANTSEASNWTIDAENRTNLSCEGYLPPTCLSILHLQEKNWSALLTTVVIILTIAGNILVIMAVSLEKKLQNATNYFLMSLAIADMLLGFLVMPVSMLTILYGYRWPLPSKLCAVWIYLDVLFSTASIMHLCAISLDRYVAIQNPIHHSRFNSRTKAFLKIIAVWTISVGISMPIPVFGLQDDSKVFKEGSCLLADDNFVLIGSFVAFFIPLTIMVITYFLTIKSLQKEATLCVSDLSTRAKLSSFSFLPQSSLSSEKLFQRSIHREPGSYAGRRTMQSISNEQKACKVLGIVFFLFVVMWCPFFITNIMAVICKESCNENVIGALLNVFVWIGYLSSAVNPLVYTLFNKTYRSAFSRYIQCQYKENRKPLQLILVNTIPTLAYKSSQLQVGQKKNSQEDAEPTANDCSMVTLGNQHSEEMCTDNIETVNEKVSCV
Method: To prepare the homogenate, frontal cortices from each animal were homogenized individually in 40 volumes (w/v) of ice cold assay buffer using a tight-fitting glass/Teflon homogenizer and centrifuged at 39,500×g for 10 min. The supernatant was discarded, and the pellet re-suspended in 40 volumes (w/v) of assay buffer and the tissue washed by centrifugation two more times. The final pellet was re-suspended in ice-cold assay buffer to 6.25 mg weight wet of tissue/ml and used immediately in the binding assay. Aliquots of final membrane preparations were also stored at −80 C until required for protein determination. All centrifugations will be carried out at 4° C.
To examine binding, the frontal cortical membranes (400 μl; equivalent to 2.5 mg wet weight of tissue/tube) were incubated with 50 μl of [3H] MDL 100907 (8 concentrations: 0.025, 0.05, 0.1, 0.2, 0.4, 0.8, 1.6, 3.2 nM) and either 50 μl of buffer (total binding) or 50 μl of 10 μM ketanserin (to define nonspecific binding) for 60 min at 25 C. […]
Membrane bound radioactivity was recovered by filtration under vacuum through Skatron 11731 filters, presoaked in 0.5% polyethylenimine (PEI) using a Skatron cell harvester. Filters were rapidly washed with ice cold wash buffer (wash setting 9,9,0) and radioactivity determined by liquid scintillation counting (1 ml Packard MV Gold scintillator). […]

SMILES | Relative Potency [1] [mg] | also measured
Cc1nnc2n1-c1ccc(Cl)cc1C(c1ccccc1)=NC2 [Alprazolam, alprazolam] | 0.5 | 
O=C1CN=C(c2ccccc2Cl)c2cc([N+](=O)[O-])ccc2N1 [Clonazepam, clonazepam] | 0.25 to 0.5 | 
O=C(O)C1N=C(c2ccccc2)c2cc(Cl)ccc2NC1=O (stereo not drawn) [Clorazepate, clorazepate] | 7 | 
CN1C(=O)CN=C(c2ccccc2)c2cc(Cl)ccc21 [Diazepam, diazepam] |  | psilocybin HTR, change with diazepam pretreatment (male C57BL/6J mice; 2 h post diazepam pretreatment): trend increase; HTR, change with diazepam pretreatment (male C57BL/6J mice; HTR at 10-15 and 20-25 minutes analyzed separately): significant increase; HTR, change with diazepam pretreatment (male C57BL/6J mice; over 30 minutes): trend increase; Bmax (fmoles/mg protein) (5HT2A): 271 fmoles/mg protein and 339 fmoles/mg protein and 334 fmoles/mg protein and 360 fmoles/mg protein and 314 fmoles/mg protein and 376 fmoles/mg protein; Bmax (pM) (5HT2A): 74.0 pM and 78.3 pM and 77.8 pM and 93.6 pM and 87.2 pM and 87.6 pM
Clc1ccc2c(c1)C(c1ccccc1)=NCc1nncn1-2 [Estazolam, estazolam] | 0.5 to 1 | 
CCN(CC)CCN1C(=O)CN=C(c2ccccc2F)c2cc(Cl)ccc21 [Flurazepam, flurazepam] | 10 | 
O=C1Nc2ccc(Cl)cc2C(c2ccccc2Cl)=NC1O (stereo not drawn) [Lorazepam, lorazepam] | 1 | 
Cc1ncc2n1-c1ccc(Cl)cc1C(c1ccccc1F)=NC2 [Midazolam, midazolam] | 3.3 | 
Fc1ccccc1C1=NCC(=S)N(CC(F)(F)F)c2ccc(Cl)cc21 [Quazepam, quazepam] | 13 | 
CN1C(=O)C(O)N=C(c2ccccc2)c2cc(Cl)ccc21 (stereo not drawn) [Temazepam, temazepam] | 10 | 
Cc1nnc2n1-c1ccc(Cl)cc1C(c1ccccc1Cl)=NC2 [Triazolam, triazolam] | 0.25 | 
